The results in this text go back to PubChem BioAssay AID256 (DTP/NCI, 2004).

Where “and” joins values, the source holds several entries; their conditions need not be identical. Identical values can stand only once. Inconclusive results and toxic doses are left out.

This assay deals with CD2F1 mice, L1210 leukemia ip, survival T/C. The assay can be described thus: NCI In Vivo Anticancer Drug Screen. Data for tumor model L1210 Leukemia (intraperitoneal) in CD2F1 (CDF1) mice. Conditions: higher = longer survival. In outline: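 Each value reflects a quotient of treated over vehicle control outcomes in mice with a transplanted tumor.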
[1] abbreviates: endpoint: mean survival time, dose: 100.0 mg/kg/injection, schedule: Q01DX009 (ip), vehicle: saline with Tween-80.
[2] abbreviates: endpoint: mean survival time, dose: 200.0 mg/kg/injection, schedule: Q01DX009 (ip), vehicle: saline with Tween-80.
[3] abbreviates: endpoint: mean survival time, dose: 100.0 mg/kg/injection, schedule: Q04DX003 (ip), vehicle: saline.
Where [4] appears, read: endpoint: mean survival time, dose: 200.0 mg/kg/injection, schedule: Q04DX003 (ip), vehicle: saline.
The mark [5] stands for this setting: endpoint: mean survival time, dose: 100.0 mg/kg/injection, schedule: Q04DX003 (ip), vehicle: saline with Tween-80.
Where [6] appears, read: endpoint: mean survival time, dose: 200.0 mg/kg/injection, schedule: Q04DX003 (ip), vehicle: saline with Tween-80.
[7] abbreviates: endpoint: mean survival time, dose: 400.0 mg/kg/injection, schedule: Q04DX003 (ip), vehicle: saline with Tween-80.

Take `COc1ccccc1C(=Nc1ccccc1)N(O)c1ccccc1`: the T/C (endpoint: mean survival time, dose: 2.5 mg/kg/injection, schedule: Q01DX001 (ip), vehicle: saline with Tween-80) was 114 % of control; the T/C (endpoint: mean survival time, dose: 2.5 mg/kg/injection, schedule: Q04DX003 (ip), vehicle: saline with Tween-80) is 101 % of control; the T/C (endpoint: mean survival time, dose: 5.0 mg/kg/injection, schedule: Q01DX001 (ip), vehicle: saline with Tween-80) is 112 % of control; the T/C (endpoint: mean survival time, dose: 5.0 mg/kg/injection, schedule: Q04DX003 (ip), vehicle: saline with Tween-80) is 101 % of control; the T/C (endpoint: mean survival time, dose: 10.0 mg/kg/injection, schedule: Q01DX001 (ip), vehicle: saline with Tween-80) is 114 % of control; the T/C (endpoint: mean survival time, dose: 10.0 mg/kg/injection, schedule: Q04DX003 (ip), vehicle: saline with Tween-80) is 98 % of control.
On to `COc1ccc([I+]c2ccc(OC)cc2)cc1`, for which the T/C is, setting by setting: (endpoint: mean survival time, dose: 1.5 mg/kg/injection, schedule: Q01DX009 (ip), vehicle: saline with Tween-80) 101 % of control; (endpoint: mean survival time, dose: 3.0 mg/kg/injection, schedule: Q01DX009 (ip), vehicle: saline with Tween-80) 104 % of control; (endpoint: mean survival time, dose: 6.0 mg/kg/injection, schedule: Q01DX009 (ip), vehicle: saline with Tween-80) 107 % of control; (endpoint: mean survival time, dose: 12.5 mg/kg/injection, schedule: Q04DX003 (ip), vehicle: saline with Tween-80) 97 % of control; (endpoint: mean survival time, dose: 25.0 mg/kg/injection, schedule: Q04DX003 (ip), vehicle: saline with Tween-80) 93 % of control; (endpoint: mean survival time, dose: 50.0 mg/kg/injection, schedule: Q04DX003 (ip), vehicle: saline with Tween-80) 93 % of control.
Regarding `NC(=O)c1ccc(Cl)c(Cl)c1`, the T/C under setting [1] was 103 % of control and the T/C under setting [2] is 103 % of control.
`O=C1C=CC(=O)C1=Cc1ccc(O)cc1`: the T/C is 100 % of control (endpoint: mean survival time, dose: 5.0 mg/kg/injection, schedule: Q04DX002 (ip), vehicle: saline with Tween-80) and 103 % of control (endpoint: mean survival time, dose: 10.0 mg/kg/injection, schedule: Q04DX002 (ip), vehicle: saline with Tween-80).
For the compound `Cc1cccc(C)c1NC(=S)NNC(=O)c1ccncc1`, the T/C is, setting by setting: (endpoint: mean survival time, dose: 25.0 mg/kg/injection, schedule: Q01DX009 (ip), vehicle: saline with Tween-80) 101 % of control; (endpoint: mean survival time, dose: 50.0 mg/kg/injection, schedule: Q01DX009 (ip), vehicle: saline with Tween-80) 97 % of control; under setting [1], 92 % of control.
Consider `NC(CSC(c1ccccc1)(c1ccccc1)c1ccc(F)cc1)C(=O)O` (stereo not drawn), for which the T/C runs as follows: (endpoint: mean survival time, dose: 25.0 mg/kg/injection, schedule: Q01DX009 (ip), vehicle: saline) 181 % of control; (endpoint: mean survival time, dose: 50.0 mg/kg/injection, schedule: Q01DX009 (ip), vehicle: saline) 192 % of control.
For the compound `CCn1c(=O)c2nc(Cl)n(C3OCC(OC(C)=O)C(OC(C)=O)C3OC(C)=O)c2n(CC)c1=O` (stereo not drawn), the T/C was 96 % of control (endpoint: mean survival time, dose: 12.5 mg/kg/injection, schedule: Q01DX005 (ip), vehicle: distilled water + Tween-80); 96 % of control (endpoint: mean survival time, dose: 25.0 mg/kg/injection, schedule: Q01DX005 (ip), vehicle: distilled water + Tween-80); 96 % of control (endpoint: mean survival time, dose: 50.0 mg/kg/injection, schedule: Q01DX005 (ip), vehicle: distilled water + Tween-80); 98 % of control (endpoint: mean survival time, dose: 100.0 mg/kg/injection, schedule: Q01DX005 (ip), vehicle: distilled water + Tween-80); 98 % of control (endpoint: mean survival time, dose: 200.0 mg/kg/injection, schedule: Q01DX005 (ip), vehicle: distilled water + Tween-80).
Regarding `CS(=O)(=O)OCC1OC(n2ccc(NC(=O)c3ccccc3)nc2=O)CC1OS(C)(=O)=O` (stereo not drawn), the T/C was 108 % of control (endpoint: median survival time, dose: 12.5 mg/kg/injection, schedule: Q01DX005 (ip), vehicle: saline with Tween-80); 100 % of control (endpoint: median survival time, dose: 25.0 mg/kg/injection, schedule: Q01DX005 (ip), vehicle: saline with Tween-80); 107 % of control (endpoint: median survival time, dose: 50.0 mg/kg/injection, schedule: Q01DX005 (ip), vehicle: saline with Tween-80); 103 % of control (endpoint: median survival time, dose: 100.0 mg/kg/injection, schedule: Q01DX005 (ip), vehicle: saline with Tween-80); 97 % of control (endpoint: median survival time, dose: 200.0 mg/kg/injection, schedule: Q01DX005 (ip), vehicle: saline with Tween-80).
Turning to `NC(=O)C1=CC2C3C=CC2(O)C(=O)OC3O1` (stereo not drawn), the T/C was 108 % of control (endpoint: median survival time, dose: 1.9 mg/kg/injection, schedule: Q01DX009 (ip), vehicle: Klucel (hydroxypropylcellulose) (HPC)); 120 % of control (endpoint: median survival time, dose: 3.75 mg/kg/injection, schedule: Q01DX009 (ip), vehicle: Klucel (hydroxypropylcellulose) (HPC)); 118 % of control (endpoint: median survival time, dose: 7.5 mg/kg/injection, schedule: Q01DX009 (ip), vehicle: Klucel (hydroxypropylcellulose) (HPC)); 117 % of control (endpoint: median survival time, dose: 15.0 mg/kg/injection, schedule: Q01DX009 (ip), vehicle: Klucel (hydroxypropylcellulose) (HPC)); 121 % of control and 110 % of control (endpoint: median survival time, dose: 30.0 mg/kg/injection, schedule: Q01DX009 (ip), vehicle: Klucel (hydroxypropylcellulose) (HPC)).
For `CCOC(=O)/C(N=Nc1ccc(O)cc1)=C(\C)O`, the T/C is, setting by setting: (endpoint: mean survival time, dose: 50.0 mg/kg/injection, schedule: Q01DX009 (ip), vehicle: Klucel (hydroxypropylcellulose) (HPC)) 101 % of control; (endpoint: mean survival time, dose: 100.0 mg/kg/injection, schedule: Q01DX009 (ip), vehicle: Klucel (hydroxypropylcellulose) (HPC)) 93 % of control; (endpoint: mean survival time, dose: 100.0 mg/kg/injection, schedule: Q04DX003 (ip), vehicle: acetone) 95 % of control; (endpoint: mean survival time, dose: 200.0 mg/kg/injection, schedule: Q01DX009 (ip), vehicle: Klucel (hydroxypropylcellulose) (HPC)) 96 % of control; (endpoint: mean survival time, dose: 200.0 mg/kg/injection, schedule: Q04DX003 (ip), vehicle: acetone) 98 % of control.
For `COc1ccc(CCNC(=O)Cc2ccc(OC)c(OC)c2)cc1OC`, the T/C runs as follows: (endpoint: mean survival time, dose: 50.0 mg/kg/injection, schedule: Q04DX003 (ip), vehicle: saline) 93 % of control; under setting [3], 96 % of control; under setting [4], 96 % of control.
With `CN=C(N)N=C(N)N`, the T/C under setting [3] is 103 % of control; the T/C under setting [4] is 100 % of control; the T/C (endpoint: mean survival time, dose: 400.0 mg/kg/injection, schedule: Q04DX003 (ip), vehicle: saline) is 95 % of control.
For `O=C([O-])c1ccccc1[I+]c1ccccc1`, the T/C was 107 % of control (endpoint: mean survival time, dose: 100.0 mg/kg/injection, schedule: Q01DX001 (ip), vehicle: Klucel (hydroxypropylcellulose) (HPC)); 102 % of control (endpoint: mean survival time, dose: 100.0 mg/kg/injection, schedule: Q01DX009 (ip), vehicle: saline sonified); 103 % of control under setting [5]; 93 % of control (endpoint: mean survival time, dose: 200.0 mg/kg/injection, schedule: Q01DX001 (ip), vehicle: Klucel (hydroxypropylcellulose) (HPC)); 94 % of control (endpoint: mean survival time, dose: 200.0 mg/kg/injection, schedule: Q01DX009 (ip), vehicle: saline sonified); 101 % of control under setting [6]. Further, the T/C (endpoint: mean survival time, dose: 400.0 mg/kg/injection, schedule: Q01DX001 (ip), vehicle: Klucel (hydroxypropylcellulose) (HPC)) is 111 % of control; the T/C (endpoint: mean survival time, dose: 400.0 mg/kg/injection, schedule: Q01DX009 (ip), vehicle: saline sonified) was 102 % of control; the T/C under setting [7] was 101 % of control.
In the case of `CC1(C)OC2CC3CC(OC3=O)C2O1` (stereo not drawn), the T/C (endpoint: mean survival time, dose: 100.0 mg/kg/injection, schedule: Q01DX001 (ip), vehicle: saline with Tween-80) is 107 % of control; the T/C (endpoint: mean survival time, dose: 200.0 mg/kg/injection, schedule: Q01DX001 (ip), vehicle: saline with Tween-80) is 97 % of control; the T/C (endpoint: mean survival time, dose: 400.0 mg/kg/injection, schedule: Q01DX001 (ip), vehicle: saline with Tween-80) was 107 % of control.
With `O=C1C(=C(C(F)(F)F)C(F)(F)F)CCc2ccc([N+](=O)[O-])cc21`, the T/C by setting is: under setting [1], 102 % of control; under setting [5], 114 % of control; under setting [2], 104 % of control; under setting [6], 101 % of control; (endpoint: mean survival time, dose: 400.0 mg/kg/injection, schedule: Q01DX009 (ip), vehicle: saline with Tween-80) 102 % of control; under setting [7], 103 % of control.
For the compound `Nc1ccc(S(=O)(=O)c2ccc(N3CCOCC3)c(N)c2)cc1`, the T/C runs as follows: (endpoint: mean survival time, dose: 100.0 mg/kg/injection, schedule: Q04DX002 (ip), vehicle: saline with Tween-80) 105 % of control; (endpoint: mean survival time, dose: 200.0 mg/kg/injection, schedule: Q04DX002 (ip), vehicle: saline with Tween-80) 94 % of control; (endpoint: mean survival time, dose: 400.0 mg/kg/injection, schedule: Q04DX002 (ip), vehicle: saline with Tween-80) 97 % of control.
Consider `Cc1c2cnccc2c(C)c2c1c1ccccc1n2CCCCCCCl`, for which the T/C under setting [5] is 91 % of control and the T/C under setting [6] was 101 % of control.
As for `CCOC(=O)C(Cl)c1ccc(OC)cc1` (stereo not drawn), the T/C (endpoint: mean survival time, dose: 100.0 mg/kg/injection, schedule: Q04DX003 (ip), vehicle: other) was 96 % of control; the T/C (endpoint: mean survival time, dose: 200.0 mg/kg/injection, schedule: Q04DX003 (ip), vehicle: other) is 97 % of control; the T/C (endpoint: mean survival time, dose: 400.0 mg/kg/injection, schedule: Q04DX003 (ip), vehicle: other) is 96 % of control.
